Data set [1] concerns Hepatitis C virus. The data set is described as follows: Inhibition of recombinant HCV 1b NS5B deltac21 RNA polymerase by scintillator counting. The arrangement: species or system Hepatitis C virus subtype 1b.
Data set [2] can be described thus: Inhibition of HCV RNA-dependent RNA polymerase. The arrangement: species or system Hepacivirus hominis.
Data set [3] relates to Hepatitis C virus. The data set is described as follows: Antiviral activity against HCV subgenomic replicon harboring NS5B gene transfected in human Huh7 cells. The following applies: Huh-7. It counts as functional, Hepacivirus hominis. In general terms: In antiviral work, replicon cells carry a viral genome segment that copies itself.
A short description of data set [4]: Cytotoxicity against human Huh7 cells. Format: cell-based, Huh-7.

pEC50, pIC50: −log10 of the molar value. Bounds are passed on as bounds.

Broadly, the pIC50 is −log10 of the IC50, conventionally taken in molar units. In general, pEC50 refers to the EC50 on a negative log10 scale, so that one unit is a factor of ten. As a reminder, the CC50 is the concentration at which the toxic effect on the cells reaches its halfway point. Read a low CC50 as harm at low concentration.

Turning to `O=C(O)/C(O)=C/C(=O)c1cccc(NCc2ccccc2)c1`, the figures for the negative-log IC50 (pIC50) in data set [1] and in data set [2] were 4.55 and 4.77, respectively. For the same compound, in data set [3], the pEC50 is 4.55. The compound further showed a CC50 in data set [4] of more than 100 µM.

`O=C(O)/C(O)=C/C(=O)c1ccccc1OCc1ccc(Cl)cc1`: the pIC50 in data set [1] was 5.70. In data set [3], this compound had a pEC50 of 6.27. The same compound gave a half-maximal cytotoxic concentration (CC50) in data set [4] of more than 100 µM.

Take `O=C(O)/C(O)=C/C(=O)c1ccc(OCc2ccccc2)cc1`: the pIC50 in data set [1] was 5.08. Also, the pEC50 in data set [3] is 6.18. The CC50 in data set [4] was more than 100 µM.

Consider `O=C(O)/C(O)=C/C(=O)c1ccc(OCc2ccc(Cl)cc2)cc1`, for which, in data set [1], the pIC50 was 5.82. The compound further showed a negative-log EC50 (pEC50) in data set [3] of 5.51. Moreover, the CC50 in data set [4] is more than 100 µM.

Regarding `O=C(O)/C(O)=C/C(=O)c1cccc(NCc2ccc(Cl)cc2)c1`, the negative-log IC50 (pIC50) in data set [1] was 6.02. In addition, in data set [3], the pEC50 was 6.09. Also, in data set [4], the CC50 is more than 100 µM.

Take `O=C(O)/C(O)=C/C(=O)c1cccc(OCc2ccccc2)c1`: the pIC50 in data set [1] is 5.34; in data set [2] it was 5.10. The compound further had a pEC50 in data set [3] of 4.52. This compound showed a CC50 in data set [4] of more than 100 µM.

On to `O=C(O)/C(O)=C/C(=O)c1cccc(OCc2ccc(Cl)cc2)c1`, for which the pIC50 in data set [1] is 4.55. Moreover, in data set [3], the pEC50 was less than 4.30. Moreover, in data set [4], the CC50 was more than 100 µM.

As for `O=C(O)/C(O)=C/C(=O)c1ccccc1OCc1ccccc1`, in data set [1], the pIC50 is 4.52. In data set [3], this compound had a negative logarithm of the EC50 (pEC50) of 4.40. This compound showed a half-maximal cytotoxic concentration (CC50) in data set [4] of more than 100 µM.

The record behind these values is ChEMBL document CHEMBL1155920, “Effects of the aryl linker and the aromatic substituent on the anti-HCV activities of aryl diketoacid (ADK) analogues” (Bioorg Med Chem Lett, 2008).
